From the supplement of paper PMC10307832

Assays:
Experiment in all cases: relative viability (nuclei count vs DMSO), 5 days (fraction); higher = more cells survive
NCI-H358 = tested on: NCI-H358
In short: (§1)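 After 5 days of treatment, lung cancer cells in 1536-well plates were fixed and stained in a single step (final 0.05% Triton X-100, 1% formaldehyde, 1 ug/ml Hoechst) and their nuclei counted on 4× images. Treatment had been applied by pin tool the day after seeding as one drug alone or as a fixed anchor-drug dose with five library-drug doses (not always all listed) in √10 steps. Relative viability is the nuclei count of treated wells divided by that of vehicle wells, and values are medians of duplicate plates.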

NCI-H1648 = tested on: NCI-H1648
In short: as §1

NCI-H2342 = tested on: NCI-H2342
In short: as §1

NCI-H1623 = tested on: NCI-H1623
In short: as §1

HCC-78 = tested on: HCC-78
In short: as §1

NCI-H2009 = tested on: NCI-H2009
In short: as §1

NCI-H522 = tested on: NCI-H522
In short: as §1

NCI-H460 = tested on: NCI-H460
In short: as §1

NCI-H661 = tested on: NCI-H661
In short: as §1

Structure (SMILES): Cc1sc2c(c1C)C(c1ccc(Cl)cc1)=N[C@@H](CC(=O)OC(C)(C)C)c1nnc(C)n1-2 [JQ1] + Cc1cc(Nc2cc(N3CCN(C)CC3)nc(Sc3ccc(NC(=O)C4CC4)cc3)n2)n[nH]1 [Tozasertib] (partner 0.1 µM)
- relative viability (NCI-H358; first compound 0.04 µM): 0.102
- relative viability (NCI-H358; first compound 0.1265 µM): 0.102
- relative viability (NCI-H358; first compound 0.4 µM): 0.124
- relative viability (NCI-H358; first compound 1.265 µM): 0.107
- relative viability (NCI-H358; first compound 4 µM): 0.0861
- relative viability (NCI-H1648; first compound 0.04 µM): 0.495
- relative viability (NCI-H1648; first compound 0.1265 µM): 0.516
- relative viability (NCI-H1648; first compound 0.4 µM): 0.243
- relative viability (NCI-H1648; first compound 1.265 µM): 0.153
- relative viability (NCI-H1648; first compound 4 µM): 0.137
- relative viability (NCI-H2342; first compound 0.04 µM): 0.65
- relative viability (NCI-H2342; first compound 0.1265 µM): 0.436
- relative viability (NCI-H2342; first compound 0.4 µM): 0.46
- relative viability (NCI-H2342; first compound 1.265 µM): 0.45
- relative viability (NCI-H2342; first compound 4 µM): 0.336
- relative viability (NCI-H1623; first compound 0.04 µM): 0.493
- relative viability (NCI-H1623; first compound 0.1265 µM): 0.367
- relative viability (NCI-H1623; first compound 0.4 µM): 0.404
- relative viability (NCI-H1623; first compound 1.265 µM): 0.375
- relative viability (NCI-H1623; first compound 4 µM): 0.335
- relative viability (HCC-78; first compound 0.04 µM): 0.474
- relative viability (HCC-78; first compound 0.1265 µM): 0.389
- relative viability (HCC-78; first compound 0.4 µM): 0.4
- relative viability (HCC-78; first compound 1.265 µM): 0.299
- relative viability (HCC-78; first compound 4 µM): 0.302
- relative viability (NCI-H2009; first compound 0.04 µM): 0.697
- relative viability (NCI-H2009; first compound 0.1265 µM): 0.414
- relative viability (NCI-H2009; first compound 0.4 µM): 0.385
- relative viability (NCI-H2009; first compound 1.265 µM): 0.199
- relative viability (NCI-H2009; first compound 4 µM): 0.187
- relative viability (NCI-H522; first compound 0.04 µM): 0.598
- relative viability (NCI-H522; first compound 0.1265 µM): 0.503
- relative viability (NCI-H522; first compound 0.4 µM): 0.454
- relative viability (NCI-H522; first compound 1.265 µM): 0.434
- relative viability (NCI-H522; first compound 4 µM): 0.339
- relative viability (NCI-H460; first compound 0.04 µM): 0.402
- relative viability (NCI-H460; first compound 0.4 µM): 0.119
- relative viability (NCI-H460; first compound 1.265 µM): 0.0684
- relative viability (NCI-H460; first compound 4 µM): 0.0339
- relative viability (NCI-H661; first compound 0.04 µM): 0.37
- relative viability (NCI-H661; first compound 0.1265 µM): 0.486
- relative viability (NCI-H661; first compound 0.4 µM): 0.37
- relative viability (NCI-H661; first compound 1.265 µM): 0.435
- relative viability (NCI-H661; first compound 4 µM): 0.401
